Measured values published in the NIST ThermoML archive (doi:10.1016/j.jct.2019.04.021).
± gives the expanded uncertainty stated by the source.

Settings: 298 K; 101.33 kPa; Crystal; X-ray diffraction

Molecule `[O-2].[O-2].[O-2].[Pr+3].[Pr+3]` [praseodymium oxide (Pr2O3)] has a mass density of 7060.5 ± 7.2 kg/m3.
